Data set [1] can be described thus: Phase 1 SAD/MAD/food effect: plasma pharmacokinetics in healthy volunteers. Type of data set: in vivo, human. From the text:
This is a first-in-human (FIH), Phase 1 study of Compound 1 that will characterize the safety, PK, and PD of Compound 1 after a single dose and after repeated dosing first in healthy adult volunteers and then in adolescents or adults with sickle cell disease. Initially, a dose range of Compound 1 in single ascending dose (SAD) escalation cohorts will be explored in healthy subjects. Enrollment of healthy subjects into 2-week multiple ascending dose (MAD) escalation cohorts will be initiated once the safety and PK from at least two SAD cohorts is available to inform the doses for the 2-week MAD portion of the study. The MAD cohorts will then run in parallel to the single dose cohorts. A single dose cohort is planned to understand food effects (FE) on the PK of Compound 1. […] Multiple dose studies in SCD subjects will then be initiated upon completion of MAD studies in healthy volunteers. Compound 1 will be administered in 25 mg and 100 mg tablets delivered orally, prepared as described in Example 1, Step 7.
In this study, SAD/MAD cohorts are randomized (3 to 1) to receive Compound 1 or placebo (P). Compound 1 was evaluated first in 4 healthy SAD cohorts and 4 healthy MAD (14-day dosing period) cohorts. Based on the safety, and PK/PD profile from HS, Compound 1 is then evaluated in 1 SCD SAD cohort and 2 SCD MAD cohorts. Specifically, based on the safety and pharmacokinetic/pharmacodynamics (PK/PD) profile in healthy volunteer studies, Compound 1 is evaluated in patients (pts) with SCD, first in a single dose (SD or SAD) cohort and then in multiple-dose (MD or MAD) cohorts (14-day and 12-week). Safety assessments include AEs, vital signs, ECGs and laboratory parameters. PK/PD blood sampling was performed on Day 1 (SAD/MAD) and Day 14 (MAD) and up to 72 h after the last dose and at the end-of-study visit. PD parameters included 2,3-DPG, ATP, and p50 in all cohorts with additional PD studies (including oxygen scan) performed only in the SCD cohorts. PD parameters included 2,3-DPG, ATP, p50, RBC deformability with controlled deoxygenation and reoxygenation (Lorrca® oxygen scan) and varying osmolality (Lorrca® osmoscan)). To maintain study blind, pt identifiers were removed when needed.
Primary Outcome Measures: • 1. Incidence, frequency, and severity of adverse events (AEs) per CTCAE v5.0 of a single ascending dose and multiple ascending doses of Compound 1 in adult healthy volunteers and SCD patients. Incidence of abnormal laboratory test results (clinical chemistry, endocrine hematology, urinalysis). Change from baseline in vital signs (blood pressure, respiratory rate, heart rate, and oral temperature). Incidence of treatment-emergent clinically significant abnormal findings in ECGs. • [Time Frame: Up to 3 weeks of monitoring] • 2. […] Area under the plasma concentration-time curve from time zero until the 24-hour time point (AUC0-24) • [Time Frame: Up to 3 weeks of testing] • 5. Area under the plasma concentration-time curve from time zero until last quantifiable time point (AUC0-last) • [Time Frame: Up to 3 weeks of testing] • 6. Area under the plasma concentration-time curve from time zero to infinity (AUC0-inf) • [Time Frame: Up to 3 weeks of testing] • 7. […] Apparent volume of distribution (Vd/F) • [Time Frame: Up to 3 weeks of testing] • 10. Terminal disposition rate constant (Lz) • [Time Frame: Up to 3 weeks of testing] • 11.
Four healthy SAD cohorts were evaluated at doses of 200, 400, 700, and 1000 mg, and four healthy MAD cohorts received 200 to 600 mg total daily doses for 14 days at QD or BID dosing (100 mg BID, 200 mg BID, 300 mg BID, and 400 mg QD). In the food effect (FE) cohort, 10 healthy subjects received 400 mg of Compound 1 QD with and without food.

Data set [2] has as its system H295R adreno-cortical carcinoma cell line. The data set is described as follows: Cell viability (MTT Kit). Type of data set: cell-based. The conditions noted are these: at 200 μM. On the procedure: To assess potential effects on steroidogenesis, Compound 1 was screened for steroid modulation in vitro using the H295R adreno-cortical carcinoma cell line (at 200 to 0.0002 μM) and in an assay to monitor cell viability (MTT Kit). Compound 1 indicated steroid modulation potential (% over vehicle) only at 200 μM, the top concentration tested, with 100% cellular viability at concentrations≤20 μM (90% viability at 200 μM).

The nature of data set [3]: Phase 1: safety, adverse events in SCD patients. Type of data set: in vivo, human. How it is done:
All SCD patients who received a single 700 mg dose of Compound 1 or placebo were monitored for adverse events for 7 days. The incidence of treatment emergent adverse events (TEAEs) in SCD patients receiving Compound 1 (700 mg) or placebo are reported in Table 23. Six TEAEs were reported in 4 patients; all TEAEs were grade 1 and transient. Specifically, six TEAEs were reported in 4 of 7 (57%) patients, including 3 TEAEs (arthralgia, headache, palpitations) in 2 of 5 (40%) pts receiving Compound 1 and 3 TEAEs (back pain, myalgia, pruritis) in 2 of 2 (100%) pts receiving placebo; all TEAEs were grade 1 and transient. […] One possibly related TEAE (palpitations) occurred about 8 hours post dose. No other symptoms were observed, and the palpitations resolved in <1 minute. […] The single 700 mg dose of Compound 1 was considered tolerable, and the first multiple dose SCD cohort was initiated.
Based on data from the MAD1 (300 mg once daily for 14 days), Compound 1 is well-tolerated in patients with SCD. In all, eighteen TEAEs were reported in 7 of 9 patients in the MAD1 (300 mg once daily) cohort (N=9). These included (a) eight Grade 1 TEAEs, including 3 patients c/o headache, 1 each of nausea, constipation, somnolence, increased LDH and increased AST, of which two AEs considered to be possibly related to study treatment were reported by one patient each (1 AE of headache and 1 AE of nausea); (b) six Grade 2 TEAEs, including 3 uncomplicated sickle pain events (in 2 patients), 1 patient with N/V and 1 increased reticulocytes, of which no AEs were considered related to study treatment, all AEs of pain events were considered unrelated and consistent with each patient's SCD pain history, and all AEs were treated with patient's standard home pain medications (no SAE/no hospitalization); and (c) one Grade 4 TEAE of elevated creatine kinase, unrelated to study treatment. Non-treatment-related AEs were consistent with events experienced in this patient population. No treatment-related serious AEs were reported.

The nature of data set [4]: Phase 1: hematologic and hemolytic parameters in SCD patients. The note with it: single 700 mg dose, 24 h. In kind it is in vivo, human.
The mark [5] stands for this setting: human, plasma, oral, HV (N = 6), single dose 700 mg, geometric mean (geometric CV).
[6] abbreviates: SCD MAD1, 300 mg × 14 days, n = 7.

Read-outs that look alike come from different tables or passages of the source.

For the molecule `O=C([C@H](CO)c1ccccc1)N1CC2=C(C1)CN(S(=O)(=O)c1cnc3c(c1)OCCO3)C2` (single isomer, unassigned) [Compound 1], the “exposure under fed/fasted conditions” value in data set [1] (food effect cohort, 400 mg) is “similar”. Moreover, the “PK linearity and time dependence” value in data set [1] (healthy subject studies) is “linear and time-independent PK”. In data set [1] (healthy subjects, 14 days of dosing), the “observed clearance on day 1 and day 14” value was “unchanged”. For the same molecule, the half-life in data set [1] (human, plasma, oral, 700 mg, HV (N = 6), single dose 700 mg, geometric mean (geometric CV), read-out: t1/2 (converted)) was 13.3 h; in data set [1] (human, plasma, oral, biphasic PK profile, read-out: terminal half-life) it was 12 to 14 h; in data set [1] (human, plasma, oral, healthy volunteers, single doses up to 700 mg, read-out: T1/2), 11 to 15 h; in data set [1] (human, plasma, oral, HS and SCD subjects similar, read-out: T½), 10 to 13 h. The AUC(0-t) in data set [1] (human, plasma, oral, HS and SCD subjects similar, read-out: AUC0-24) is around 7000 ng·h/mL. This molecule showed an AUC(0-inf) in data set [1] (setting [5]) of 7000 ng·h/mL. Further, in data set [1] (setting [5]), the Cmax amounted to 2200 ng/mL. The Tmax in data set [1] (human, plasma, oral, HV (N = 6), single dose 700 mg, median [min, max]) was 0.5 h. In data set [2], this molecule showed a cellular viability of 90%. In data set [3] (setting [6]), the “Any serious adverse event (SAE), n (%)” value is listed as 0 n (%). Besides, the “TEAE related to study drug, n (%)” value in data set [3] (setting [6]) was 2 (29%) n (%); in data set [3] (SCD, single dose 700 mg, N = 5) it was 1 (20) n (%). Besides, in data set [3] (SCD single dose cohort), the “serious adverse events or TEAEs leading to withdrawal” value was “No serious adverse events (SAEs) or TEAEs leading to pt withdrawal”. The “Any TEAE, n (%)” value in data set [3] (SCD, single dose 700 mg, N = 5) is 2 (40) n (%). Moreover, the “mean Hb difference versus placebo” value in data set [4] is given as around 0.9 g/dL.
